Results taken from PMC10545747, “Development of cyclopeptide inhibitors of cGAS targeting protein-DNA interaction and phase separation” (Nature Communications, 2023).
Several values for one entry are separate records, joined by “and”; a condition that tells them apart may be missing. Identical values can stand only once. Square brackets hold non-standard residues; d marks the D form. Peptide text beside a SMILES is read from it.

Tests used:
[1] = biological target: T1, recombinant human cGAS enzyme (hcGAS-ΔN, residues 147–522) (Homo sapiens, UniProt Q8N884); test: RNA-based fluorescent biosensor assay of cGAS activity (2',3'-cGAMP formation), in vitro screening; assay type: biochemical; conditions: for Remaining activity (%), Fig. 1a source data / remaining activity at 20 µM: 20 μM, replicate values; for remaining activity at 20 µM: read-out: Remaining activity (%), Fig. 1a source data; for Inhibition % / inhibition at 20 µM: peptides screened at 20 μM, Supplementary Table 1 / Fig. S5b; for Inhibition %: 20 µM; for inhibition at 20 µM: read-out: Inhibition %
T1 construct: N-terminally truncated human cGAS (hcGAS-ΔN, residues 147–522); 6xHis-SUMO (N, cleaved yes); made in house; host or cells: Escherichia coli BL21 (DE3)
In short: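 In 40 mM Tris-HCl pH 7.5, 100 mM NaCl, 10 mM MgCl2, ISD (0.5 μM) started the reaction with hcGAS-ΔN (1.5 μM), ATP (1 mM) and GTP (1 mM). Incubation was 2 h at 37 °C, with compounds screened at 20 μM. 2',3'-cGAMP formed was quantified with an RNA-based fluorescent biosensor.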

THP1-Lucia ISG cells = test: Luciferase reporter assay, dsDNA stimulation; assay type: cell-based, human; set-up: Type I interferon response, luciferase activity, Fig. 1c / luciferase activity, Fig. 2a: scale not given here; conditions: dsDNA 24 h; replicate values
From the text: (§1) To screen direct cGAS inhibitors targeting protein-DNA interface from our developed focused library of macrocyclic peptides, we applied an RNA-based fluorescent biosensor for 2’,3’-cGAMP to detect cGAS activity in vitro (Supplementary Fig. 1a)[49]. The formation of 2’,3’-cGAMP from ATP and GTP was catalyzed by recombinant human cGAS enzyme (hcGAS-ΔN, residues 147–522, Supplementary Fig. 1b) in the presence of ISD (interferon stimulatory DNA, a 45-bp dsDNA), which was readily quantified by the RNA-based fluorescent biosensor and was further confirmed by ion exchange chromatography (Supplementary Fig. 1c). […] Subsequently, a total of 90 macrocyclic peptides were screened at a concentration of 20 μM (Fig. 1a and Supplementary Fig. 1e), and 4 hits (XQ2, XQ8, XQ19, and XQ46) were obtained for further testing at a cut-off of 40% inhibition (Supplementary Table 1). To evaluate the inhibitory effect of the hits against cGAS in cells, we employed real-time quantitative PCR (qPCR) to examine mRNA levels of IFNΒ1 in THP1 cells. The reported cGAS inhibitor RU.521 was used as the positive control, and the non-active peptide XQ28 in the screening assay was used as the negative control. […] The inhibition of cGAS by these hits was further confirmed in the reporter cell line THP1-Lucia ISG (Invivogen) that expresses secreted luciferase induced by an IRF3-inducible ISG54 promoter (Fig. 1c). The discrepancy between the inhibitory effect of the hits in protein and cellular assays may be attributed to their different cellular permeability.
THP1-Lucia ISG cells (Invivogen) were seeded into a 96-well plate and incubated with RU.521 (Invivogen) or XQ2 for the indicated time, and then transfected with dsDNA by lipofectamine 2000 (Invitrogen) or infected by HSV-1 with the indicated titer for 24 h. The supernatant was collected and 50 μL QUANTI-Luc Luciferase reagent (Invivogen) was added to 20 μL supernatants per well, and luciferase luminescence was detected by a microplate reader (BioTek Synergy H1) immediately.

[2] = test system: dsDNA-stimulated THP1 cells; test: qPCR of IFNB1/CXCL10/IL6 mRNA in THP1 cells stimulated by dsDNA (ISD, HSV60mer); assay type: cell-based, human; conditions: THP1, dsDNA 6 h; hits 10 μM; replicate values
From the text: as §1
The indicated cells were stimulated with either ISD (Sangon Biotech), HSV-1 (Provided by Dr. Zhengfan Jiang), HSV60mer (Sangon Biotech), SATE-cddA[70], 2’3’-cGAMP (Invivogen, Cat# tlrl-nacga23-1), ADU-S100 (MedChemExpress, Cat# HY-12885A) or Poly(I:C) (Invivogen, Cat# tlrl-pic) after XQ2 or XQ2B treatment. Total RNA was isolated from indicated cells that incubated with the drugs for indicated time or mice tissues by using NucleoZOL reagent (MACHEREY-NAGEL) according to the manufacturer’s instructions. The quantifications of mRNA levels were carried out by real-time PCR using a PerfectStart® Uni RT&qPCR Kit (TransGen Biotech) on the QuantStudio 5 qPCR machine (Applied Biosystems). Samples were carried out in triplicate and the target CT values were normalized to GAPDH CT values. Primers of qPCR used in this study can be found in Supplementary Table S2.

T1 sequence (Q8N884 147-522, stated change not applied): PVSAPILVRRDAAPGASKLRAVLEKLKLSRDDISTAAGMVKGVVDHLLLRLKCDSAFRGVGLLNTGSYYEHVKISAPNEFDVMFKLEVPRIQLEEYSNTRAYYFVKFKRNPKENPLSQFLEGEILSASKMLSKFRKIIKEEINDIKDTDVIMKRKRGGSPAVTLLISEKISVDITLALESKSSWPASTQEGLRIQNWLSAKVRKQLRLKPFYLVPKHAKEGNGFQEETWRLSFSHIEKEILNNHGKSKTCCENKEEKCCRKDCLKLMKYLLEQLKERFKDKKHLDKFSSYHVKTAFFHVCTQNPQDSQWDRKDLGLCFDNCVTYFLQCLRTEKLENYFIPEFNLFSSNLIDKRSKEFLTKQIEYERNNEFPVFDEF

Row | SMILES | Remaining activity (%), Fig. 1a source data [1] | remaining activity at 20 µM [1] | Inhibition % [1] | inhibition at 20 µM [1] | Type I interferon response, luciferase activity, Fig. 1c (THP1-Lucia ISG cells) | IFNB1 mRNA, qPCR, Fig. 1b [2] | cGAS activity in the biosensor assay [1]
1 | CC(C)C[C@@H]1NC(=O)[C@H](CCCNC(=N)N)NC(=O)[C@H](C(C)C)NC(=O)[C@H](C)NC(=O)[C@@H](Cc2ccccc2)NC(=O)[C@H](CC(C)C)NC(=O)[C@H](CCCNC(=N)N)NC(=O)[C@H](C(C)C)NC(=O)[C@H](C)NC(=O)[C@@H](Cc2ccccc2)NC1=O [XQ8, Cyclo (LfAVRLfAVR)] (cyclo(AVRL[dF]AVRL[dF])) | 48.5808% and 47.6977% | 48.8% | ≥ 40% | 52% | 1.122 and 0.7764 and 0.491 | 50.5074 and 61.5926 and 57.7936 | –
2 | CC(C)C[C@@H]1NC(=O)[C@H](CCCNC(=N)N)NC(=O)[C@H](C(C)C)NC(=O)[C@@H]2CCCN2C(=O)[C@@H](Cc2ccccc2)NC(=O)[C@H](C)NC(=O)[C@H](CCCNC(=N)N)NC(=O)[C@H](C(C)C)NC(=O)[C@H](C)NC(=O)[C@@H](Cc2ccccc2)NC1=O [XQ19, Cyclo (AfPVRLfAVR)] (cyclo(AVRA[dF]PVRL[dF])) | 39.7338% and 39.7351% | 40.1% | ≥ 40% | 60% | 0.9185 and 0.6328 and 0.8726 | 69.3649 and 64.1779 and 70.7063 | –
3 | N=C(N)NCCC[C@@H]1NC(=O)[C@@H]2CCCN2C(=O)[C@H](Cc2ccccc2)NC(=O)[C@H](CCCNC(=N)N)NC(=O)[C@@H]2CCCN2C(=O)[C@H](Cc2ccccc2)NC1=O [XQ28, Cyclo (RFPRFP)] (cyclo(FPRFPR)) | 109.037% and 108.058% | 107% | – | 0% | 1.441 and 0.666 and 1.434 | 80.7818 and 80.352 and 88.8517 | non-active
4 | CC(C)C[C@@H]1NC(=O)[C@H](CC(C)C)NC(=O)[C@H](C(C)C)NC(=O)[C@@H]2CCCN2C(=O)[C@@H](Cc2ccccc2)NC(=O)[C@H](C)NC(=O)[C@H](CCCNC(=N)N)NC(=O)[C@H](C(C)C)NC(=O)[C@@H]2CCCN2C(=O)[C@@H](Cc2ccccc2)NC1=O [XQ46, Cyclo (AfPVLLfPVR)] (cyclo(A[dF]PVLL[dF]PVR)) | 43.44% and 43.4055% | 43.8% | ≥ 40% | 56% | 0.8903 and 0.5111 and 0.5713 | 39.5997 and 41.1038 and 45.9315 | comparable inhibitory activity as that of XQ2, XQ8 and XQ19
